From patent US11352340B2, “Pyridine and pyridimine compounds as PI3K-gamma inhibitors” (Incyte Corporation, priority 2016, dated 2022)
Where a name gives a salt, the structure may show the parent alone.

Tests used:
[1] = molecular target: PI3Kδ (p110δ/p85α) Recombinant Human Protein (Homo sapiens (Human), UniProt O00329); experiment: PI3Kδ Scintillation Proximity Assay; assay type: biochemical; details: read-out: PI3K-delta SPA IC50
Text: Example C. PI3Kδ Scintillation Proximity Assay
(§1) [γ-^33P]ATP (10 mCi/mL) and Wheat Germ Agglutinin (WGA) YSi SPA Scintillation Beads was purchased from Perkin-Elmer (Waltham, Mass.). Lipid kinase substrate, D-myo-Phosphatidylinositol 4,5-bisphosphate (PtdIns(4,5)P2)D (+)-sn-1,2-di-O-octanoylglyceryl, 3-O-phospho linked (PIP2), CAS 204858-53-7, was purchased from Echelon Biosciences (Salt Lake City, Utah). PI3Kδ (p110δ/p85α) Recombinant Human Protein was purchased from Eurofins (St Charles, Mo.). ATP, MgCl2, DTT, EDTA, MOPS and CHAPS were purchased from Sigma-Aldrich (St. Louis, Mo.).
(§2) The kinase reaction was conducted in polystyrene 384-well Greiner Bio-one white plate from Thermo Fisher Scientific in a final volume of 25 μL. Inhibitors were first diluted serially in DMSO and added to the plate wells before the addition of other reaction components. The final concentration of DMSO in the assay was 2%. The PI3Kδ assay was carried out at room temperature in 20 mM MOPS, pH 6.7, 10 mM MgCl2, 5 mM DTT and CHAPS 0.03%. Reactions were initiated by the addition of ATP, the final reaction mixture consisted of 20 μM PIP2, 2 μM ATP, 0.5 μCi [γ-^33P] ATP, 3.4 nM PI3Kδ. Reactions were incubated for 120 min and terminated by the addition of 40 μL SPA beads suspended in quench buffer: 163 mM potassium phosphate pH 7.8, 20% glycerol, 25 mM EDTA. The final concentration of SPA beads is 1.0 mg/mL. After the plate sealing, plates were shaken overnight at room temperature and centrifuged at 1500 rpm for 10 min, the radioactivity of the product was determined by scintillation counting on Topcount (Perkin-Elmer). IC50 determination was performed by fitting the curve of percent of the solvent control activity versus the log of the inhibitor concentration using the GraphPad Prism 6.0 software.

[2] = molecular target: PI3Kγ (p110γ) Recombinant Human Protein (Homo sapiens (Human), UniProt P48736); experiment: PI3K-γ Scintillation Proximity Assay; assay type: biochemical; details: read-out: PI3K-gamma SPA IC50
Chain of PI3Kγ (p110γ) Recombinant Human Protein (P48736 whole entry): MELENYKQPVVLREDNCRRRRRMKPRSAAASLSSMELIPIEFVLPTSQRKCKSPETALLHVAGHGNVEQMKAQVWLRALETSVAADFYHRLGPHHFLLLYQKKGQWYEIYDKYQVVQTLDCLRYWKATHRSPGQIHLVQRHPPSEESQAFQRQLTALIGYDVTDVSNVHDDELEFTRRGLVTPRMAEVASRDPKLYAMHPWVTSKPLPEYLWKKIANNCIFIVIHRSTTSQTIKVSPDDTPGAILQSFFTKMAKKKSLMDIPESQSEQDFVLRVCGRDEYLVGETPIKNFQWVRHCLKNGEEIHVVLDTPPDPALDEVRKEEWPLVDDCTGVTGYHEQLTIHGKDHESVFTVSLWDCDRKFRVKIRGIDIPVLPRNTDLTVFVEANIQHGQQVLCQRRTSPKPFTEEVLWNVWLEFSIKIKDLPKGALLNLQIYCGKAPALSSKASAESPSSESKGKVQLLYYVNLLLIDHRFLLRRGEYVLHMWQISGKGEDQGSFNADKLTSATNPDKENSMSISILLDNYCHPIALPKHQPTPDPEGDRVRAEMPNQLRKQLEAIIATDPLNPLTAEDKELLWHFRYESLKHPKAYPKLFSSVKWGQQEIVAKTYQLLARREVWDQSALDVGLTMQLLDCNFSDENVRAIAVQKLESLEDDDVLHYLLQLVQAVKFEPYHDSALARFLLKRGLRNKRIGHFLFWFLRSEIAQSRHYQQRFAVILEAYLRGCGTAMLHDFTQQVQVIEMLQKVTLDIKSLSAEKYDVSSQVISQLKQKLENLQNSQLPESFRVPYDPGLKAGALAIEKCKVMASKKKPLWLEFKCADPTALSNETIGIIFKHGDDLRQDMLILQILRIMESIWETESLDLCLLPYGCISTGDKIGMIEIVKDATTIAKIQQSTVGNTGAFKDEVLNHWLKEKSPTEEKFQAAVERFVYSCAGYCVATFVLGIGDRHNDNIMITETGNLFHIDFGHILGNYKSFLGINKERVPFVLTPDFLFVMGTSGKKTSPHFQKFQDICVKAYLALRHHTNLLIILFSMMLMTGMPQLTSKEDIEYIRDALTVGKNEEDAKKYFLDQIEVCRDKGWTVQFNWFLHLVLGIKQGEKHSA
Text: Example B. PI3K-γ Scintillation Proximity Assay
as §1, with “PI3Kγ (p110γ)” for “PI3Kδ (p110δ/p85α)”, “Life technology (Grand Island, N.Y.).” for “Eurofins (St Charles, Mo.).”
as §2, with “PI3Kγ” for “PI3Kδ”, “13” for “3.4”, “PI3Kγ.” for “PI3Kδ.”

Chain of PI3Kδ (p110δ/p85α) Recombinant Human Protein (O00329 whole entry): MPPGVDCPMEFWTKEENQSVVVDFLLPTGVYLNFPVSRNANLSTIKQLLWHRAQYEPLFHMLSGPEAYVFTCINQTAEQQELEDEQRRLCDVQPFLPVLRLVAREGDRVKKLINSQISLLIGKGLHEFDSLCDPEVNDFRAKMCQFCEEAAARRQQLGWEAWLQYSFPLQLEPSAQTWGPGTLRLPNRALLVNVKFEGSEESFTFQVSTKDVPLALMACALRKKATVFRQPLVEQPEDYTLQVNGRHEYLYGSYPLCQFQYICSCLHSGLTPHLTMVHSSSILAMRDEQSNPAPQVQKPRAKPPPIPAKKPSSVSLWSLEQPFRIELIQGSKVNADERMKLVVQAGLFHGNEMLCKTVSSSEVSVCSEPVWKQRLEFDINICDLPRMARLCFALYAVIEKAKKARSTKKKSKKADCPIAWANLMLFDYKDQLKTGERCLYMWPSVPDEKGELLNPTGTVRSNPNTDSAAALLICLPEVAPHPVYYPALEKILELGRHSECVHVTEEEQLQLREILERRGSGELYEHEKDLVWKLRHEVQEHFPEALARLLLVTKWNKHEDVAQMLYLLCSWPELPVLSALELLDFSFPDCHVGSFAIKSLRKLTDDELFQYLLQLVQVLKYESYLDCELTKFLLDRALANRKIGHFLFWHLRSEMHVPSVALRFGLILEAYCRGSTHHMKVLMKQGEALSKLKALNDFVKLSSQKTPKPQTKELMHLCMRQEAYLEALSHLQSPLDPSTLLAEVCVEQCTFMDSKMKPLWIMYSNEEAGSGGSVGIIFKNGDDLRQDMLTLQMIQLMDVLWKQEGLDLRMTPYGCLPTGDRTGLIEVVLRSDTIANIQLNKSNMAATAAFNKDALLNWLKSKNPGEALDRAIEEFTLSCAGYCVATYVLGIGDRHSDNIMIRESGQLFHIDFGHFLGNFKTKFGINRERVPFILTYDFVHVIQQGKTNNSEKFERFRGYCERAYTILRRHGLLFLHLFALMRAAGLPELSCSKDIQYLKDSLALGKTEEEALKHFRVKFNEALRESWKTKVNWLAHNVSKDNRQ
Chain of PI3Kδ (p110δ/p85α) Recombinant Human Protein (P27986 whole entry partner): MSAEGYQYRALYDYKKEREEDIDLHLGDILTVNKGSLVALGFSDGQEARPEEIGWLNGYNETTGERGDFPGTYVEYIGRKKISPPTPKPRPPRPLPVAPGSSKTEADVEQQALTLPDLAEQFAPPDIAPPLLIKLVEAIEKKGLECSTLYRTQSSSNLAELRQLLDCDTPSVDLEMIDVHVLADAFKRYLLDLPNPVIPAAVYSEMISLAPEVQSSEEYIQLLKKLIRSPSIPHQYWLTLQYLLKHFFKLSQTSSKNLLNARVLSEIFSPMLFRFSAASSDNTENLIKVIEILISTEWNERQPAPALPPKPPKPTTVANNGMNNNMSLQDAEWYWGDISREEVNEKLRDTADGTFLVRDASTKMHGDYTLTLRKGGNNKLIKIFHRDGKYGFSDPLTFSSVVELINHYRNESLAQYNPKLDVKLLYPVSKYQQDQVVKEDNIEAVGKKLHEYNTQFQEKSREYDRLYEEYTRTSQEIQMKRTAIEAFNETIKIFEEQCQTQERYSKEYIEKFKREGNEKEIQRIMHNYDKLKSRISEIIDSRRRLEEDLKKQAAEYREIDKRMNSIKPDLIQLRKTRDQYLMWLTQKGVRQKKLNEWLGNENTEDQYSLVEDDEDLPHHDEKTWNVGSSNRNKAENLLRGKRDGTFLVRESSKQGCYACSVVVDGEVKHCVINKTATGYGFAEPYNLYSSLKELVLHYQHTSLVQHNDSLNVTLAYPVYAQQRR

Row | IC50 [1] | IC50 [2] | SMILES
1 | ≤ 500 nM | > 500 nM | N#CCCn1cc(-c2ccnc(-c3ncc(-c4ccccc4)[nH]3)c2)cn1 [Example 52, 3-(4-(2-(5-Phenyl-1H-imidazol-2-yl)pyridin-4-yl)-1H-pyrazol-1-yl)propanenitrile trifluoroacetate salt]
2 | > 500 nM | > 500 nM | NC(=O)CCn1cc(-c2ccnc(-c3ncc(-c4ccccc4)[nH]3)c2)cn1 [Example 53, 3-(4-(2-(5-Phenyl-1H-imidazol-2-yl)pyridin-4-yl)-1H-pyrazol-1-yl)propanamide]
3 | ≤ 500 nM | ≤ 500 nM | CCOC(=O)CCn1cc(-c2ccnc(-c3ncc(-c4ccccc4)[nH]3)c2)cn1 [Example 55, Ethyl 3-(4-(2-(5-phenyl-1H-imidazol-2-yl)pyridin-4-yl)-1H-pyrazol-1-yl)propanoate trifluoroacetate salt]
4 | ≤ 100 nM | ≤ 500 nM | O=C(O)CCn1cc(-c2ccnc(-c3ncc(-c4ccccc4)[nH]3)c2)cn1 [Example 57, 3-(4-(2-(5-Phenyl-1H-imidazol-2-yl)pyridin-4-yl)-1H-pyrazol-1-yl)propanoic acid trifluoroacetate salt]
5 | > 500 nM | > 500 nM | CNC(=O)CCn1cc(-c2ccnc(-c3ncc(-c4ccccc4)[nH]3)c2)cn1 [Example 58, N-Methyl-3-(4-(2-(5-phenyl-1H-imidazol-2-yl)pyridin-4-yl)-1H-pyrazol-1-yl)propanamide trifluoroacetate salt]
6 | > 500 nM | > 500 nM | O=C(CCn1cc(-c2ccnc(-c3ncc(-c4ccccc4)[nH]3)c2)cn1)NC1CCCC1 [Example 59, N-cyclopentyl-3-(4-(2-(5-phenyl-1H-imidazol-2-yl)pyridin-4-yl)-1H-pyrazol-1-yl)propanamide trifluoroacetate salt]
7 | > 500 nM | > 500 nM | COc1cncc(-c2ccnc(-c3cnc(N)[nH]3)c2)c1 [Example 61, 5-(5-Methoxy-3,4′-bipyridin-2′-yl)-1H-imidazol-2-amine]
8 | > 500 nM | ≤ 500 nM | COc1cncc(-c2ccnc(-c3cnc(NCC(C)C)[nH]3)c2)c1 [Example 64, N-Isobutyl-5-(5-methoxy-3,4′-bipyridin-2′-yl)-1H-imidazol-2-amine trifluoroacetate salt]
9 | > 500 nM | > 500 nM | COc1cncc(-c2ccnc(-c3nnc[nH]3)c2)c1 [Example 72, 5-Methoxy-2′-(4H-1,2,4-triazol-3-yl)-3,4′-bipyridine]
10 | > 500 nM | > 500 nM | COc1cncc(-c2ccnc(-c3nnc(C)[nH]3)c2)c1 [Example 73, 5-Methoxy-2′-(5-methyl-4H-1,2,4-triazol-3-yl)-3,4′-bipyridine]
11 | > 500 nM | > 500 nM | COc1cncc(-c2ccnc(-c3nc(C)c(NC(C)=O)[nH]3)c2)c1 [Example 75, N-[2-(5-Methoxy-3,4′-bipyridin-2′-yl)-4-methyl-1H-imidazol-5-yl]acetamide]
12 | ≤ 500 nM | ≤ 500 nM | COc1cncc(-c2ccnc(-c3nc4c([nH]3)CCC4)c2)c1 [Example 78, 2-(5-Methoxy-3,4′-bipyridin-2′-yl)-1,4,5,6-tetrahydrocyclopenta[d]imidazole]
13 | > 500 nM | > 500 nM | CCOC(=O)c1nc(-c2cc(-c3cncc(OC)c3)ccn2)[nH]c1C(F)(F)F [Example 80, Ethyl 2-(5-methoxy-3,4′-bipyridin-2′-yl)-5-(trifluoromethyl)-1H-imidazole-4-carboxylate]
14 | > 500 nM | > 500 nM | COc1cncc(-c2ccnc(-c3nc(C(=O)O)c(C(F)(F)F)[nH]3)c2)c1 [Example 81, 2-(5-Methoxy-3,4′-bipyridin-2′-yl)-5-(trifluoromethyl)-1H-imidazole-4-carboxylic acid trifluoroacetate salt]
15 | > 500 nM | > 500 nM | COc1cncc(-c2cc(-c3nc4ccccc4[nH]3)ncn2)c1 [Example 95, trifluoroacetate salt]
16 | ≤ 500 nM | ≤ 500 nM | CCc1cnc(-c2cc(-c3cncc(N4CCOCC4)c3)ccn2)[nH]1 [Example 100, 4-(2′-(5-Ethyl-1H-imidazol-2-yl)-3,4′-bipyridin-5-yl)morpholine trifluoroacetate salt]
17 | ≤ 500 nM | ≤ 500 nM | CC(C)c1cnc(-c2cc(-c3cncc(N4CCOCC4)c3)ccn2)[nH]1 [Example 101, 4-(2′-(5-Isopropyl-1H-imidazol-2-yl)-3,4′-bipyridin-5-yl)morpholine trifluoroacetate salt]
18 | ≤ 500 nM | ≤ 500 nM | CC(C)(C)OC(=O)Nc1cncc(-c2ccnc(-c3ncc(-c4ccccc4)[nH]3)c2)c1 [Example 126, tert-Butyl [2′-(5-phenyl-1H-imidazol-2-yl)-3,4′-bipyridin-5-yl]carbamate]
19 | ≤ 500 nM | ≤ 500 nM | Cc1nc(-c2cc(-c3cncc(NC(=O)OC(C)(C)C)c3)ccn2)[nH]c1C [Example 128, tert-Butyl [2′-(4,5-dimethyl-1H-imidazol-2-yl)-3,4′-bipyridin-5-yl]carbamate]
20 | ≤ 500 nM | ≤ 100 nM | Cc1nc(-c2cc(-c3cncc(N)c3)ccn2)[nH]c1C [Example 129, 2′-(4,5-Dimethyl-1H-imidazol-2-yl)-3,4′-bipyridin-5-amine]
21 | ≤ 500 nM | ≤ 500 nM | O=C(Nc1cncc(-c2ccnc(-c3ncc(-c4ccccc4)[nH]3)c2)c1)c1ccccc1 [Example 132, N-(2′-(5-Phenyl-1H-imidazol-2-yl)-3,4′-bipyridin-5-yl)benzamide]
22 | ≤ 100 nM | ≤ 500 nM | O=C(Nc1cncc(-c2ccnc(-c3ncc(-c4ccccc4)[nH]3)c2)c1)c1ccccc1Cl [Example 133, 2-Chloro-N-(2′-(5-phenyl-1H-imidazol-2-yl)-3,4′-bipyridin-5-yl)benzamide]
23 | > 500 nM | > 500 nM | O=C(Nc1cncc(-c2ccnc(-c3ncc(-c4ccccc4)[nH]3)c2)c1)c1cccc(Cl)c1 [Example 134, 3-Chloro-N-(2′-(5-phenyl-1H-imidazol-2-yl)-3,4′-bipyridin-5-yl)benzamide]
24 | ≤ 500 nM | > 500 nM | O=C(Nc1cncc(-c2ccnc(-c3ncc(-c4ccccc4)[nH]3)c2)c1)c1ccc(Cl)cc1 [Example 135, 4-Chloro-N-(2′-(5-phenyl-1H-imidazol-2-yl)-3,4′-bipyridin-5-yl)benzamide]
25 | ≤ 500 nM | ≤ 500 nM | N#Cc1cccc(C(=O)Nc2cncc(-c3ccnc(-c4ncc(-c5ccccc5)[nH]4)c3)c2)c1 [Example 136, 3-Cyano-N-(2′-(5-phenyl-1H-imidazol-2-yl)-3,4′-bipyridin-5-yl)benzamide]
26 | ≤ 500 nM | ≤ 500 nM | N#Cc1ccc(C(=O)Nc2cncc(-c3ccnc(-c4ncc(-c5ccccc5)[nH]4)c3)c2)cc1 [Example 137, 4-Cyano-N-(2′-(5-phenyl-1H-imidazol-2-yl)-3,4′-bipyridin-5-yl)benzamide]
27 | ≤ 100 nM | ≤ 500 nM | CCNC(=O)Nc1cncc(-c2ccnc(-c3ncc(-c4ccccc4)[nH]3)c2)c1 [Example 139, N-Ethyl-N′-[2′-(5-phenyl-1H-imidazol-2-yl)-3,4′-bipyridin-5-yl]urea Trifluoroacetate Salt]
28 | ≤ 50 nM | ≤ 100 nM | CCOC(=O)Nc1cncc(-c2ccnc(-c3ncc(-c4ccccc4)[nH]3)c2)c1 [Example 140, Ethyl 2′-(5-phenyl-1H-imidazol-2-yl)-3,4′-bipyridin-5-ylcarbamate Trifluoroacetate Salt]
